Tests used:
Test in all cases: relative viability (nuclei count vs DMSO), 5 days (fraction); higher = more cells survive
ABC-1 = test system: ABC-1
Procedure, shortened: (§1)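 Relative viability equals treated-well nuclei counts divided by vehicle-well nuclei counts. Counts came from 4× images of lung cancer cell lines grown in 1536-well plates for 5 days after pin-tool dosing on the day after seeding. Dosing used one drug alone or a fixed anchor-drug dose plus five library-drug doses (not always all listed) in √10 steps, and values are medians of duplicate plates.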

ChaGo-K-1 = test system: ChaGo-K-1
Procedure, shortened: as §1

HCC-366 = test system: HCC-366
Procedure, shortened: as §1

HCC-78 = test system: HCC-78
Procedure, shortened: as §1

LC-2-ad = test system: LC-2-ad
Procedure, shortened: as §1

LOU-NH91 = test system: LOU-NH91
Procedure, shortened: as §1

LU99A = test system: LU99A
Procedure, shortened: as §1

NCI-H1395 = test system: NCI-H1395
Procedure, shortened: as §1

NCI-H1651 = test system: NCI-H1651
Procedure, shortened: as §1

NCI-H1755 = test system: NCI-H1755
Procedure, shortened: as §1

NCI-H1793 = test system: NCI-H1793
Procedure, shortened: as §1

NCI-H1944 = test system: NCI-H1944
Procedure, shortened: as §1

NCI-H2087 = test system: NCI-H2087
Procedure, shortened: as §1

NCI-H2170 = test system: NCI-H2170
Procedure, shortened: as §1

NCI-H2405 = test system: NCI-H2405
Procedure, shortened: as §1

NCI-H3122 = test system: NCI-H3122
Procedure, shortened: as §1

NCI-H460 = test system: NCI-H460
Procedure, shortened: as §1

PC-3 [JPC-3] = test system: PC-3 [JPC-3]
Procedure, shortened: as §1

RERF-LC-KJ = test system: RERF-LC-KJ
Procedure, shortened: as §1

UMC-11 = test system: UMC-11
Procedure, shortened: as §1

Compound `O=c1cc(N2CCOCC2)oc2c(-c3cccc4c3sc3ccccc34)cccc12` + Nc1ncn([C@H]2C[C@H](O)[C@@H](CO)O2)c(=O)n1 [Decitabine] (partner 2 µM) has a relative viability (ABC-1; first compound 0.01 µM) of 1.01, a relative viability (ABC-1; first compound 0.03162 µM) of 1.15 and a relative viability (ABC-1; first compound 0.1 µM) of 1.31. For the same compound, the relative viability (ABC-1; first compound 0.3162 µM) was 0.959, the relative viability (ABC-1; first compound 1 µM) was 1.09 and the relative viability (ChaGo-K-1; first compound 0.01 µM) was 0.524. For the same compound, the relative viability (ChaGo-K-1; first compound 0.03162 µM) was 0.539, the relative viability (ChaGo-K-1; first compound 0.1 µM) was 0.532 and the relative viability (ChaGo-K-1; first compound 0.3162 µM) was 0.57. For the same compound, the relative viability (ChaGo-K-1; first compound 1 µM) was 0.546, the relative viability (HCC-366; first compound 0.01 µM) was 0.331 and the relative viability (HCC-366; first compound 0.03162 µM) was 0.365. For the same compound, the relative viability (HCC-366; first compound 0.1 µM) was 0.413, the relative viability (HCC-366; first compound 0.3162 µM) was 0.348 and the relative viability (HCC-366; first compound 1 µM) was 0.296. For the same compound, the relative viability (HCC-78; first compound 0.01 µM) was 0.611, the relative viability (HCC-78; first compound 0.03162 µM) was 0.716 and the relative viability (HCC-78; first compound 0.1 µM) was 0.544. The relative viability (HCC-78; first compound 0.3162 µM) was 0.652, the relative viability (HCC-78; first compound 1 µM) was 0.692 and the relative viability (LC-2-ad; first compound 0.01 µM) was 0.736. It also gave a relative viability (LC-2-ad; first compound 0.03162 µM) of 0.801, a relative viability (LC-2-ad; first compound 0.1 µM) of 0.79 and a relative viability (LC-2-ad; first compound 0.3162 µM) of 0.822. The relative viability (LC-2-ad; first compound 1 µM) was 0.893, the relative viability (LOU-NH91; first compound 0.01 µM) was 0.774 and the relative viability (LOU-NH91; first compound 0.03162 µM) was 0.794. For the same compound, the relative viability (LOU-NH91; first compound 0.1 µM) was 0.83, the relative viability (LOU-NH91; first compound 0.3162 µM) was 0.827 and the relative viability (LOU-NH91; first compound 1 µM) was 0.784. It also gave a relative viability (LU99A; first compound 0.01 µM) of 0.906, a relative viability (LU99A; first compound 0.03162 µM) of 1.01 and a relative viability (LU99A; first compound 0.1 µM) of 0.993. The relative viability (LU99A; first compound 0.3162 µM) was 0.827, the relative viability (LU99A; first compound 1 µM) was 0.978 and the relative viability (NCI-H1395; first compound 0.03162 µM) was 0.772. It also gave a relative viability (NCI-H1395; first compound 0.1 µM) of 0.656, a relative viability (NCI-H1395; first compound 0.3162 µM) of 0.701 and a relative viability (NCI-H1395; first compound 1 µM) of 0.692. For the same compound, the relative viability (NCI-H1651; first compound 0.01 µM) was 0.563, the relative viability (NCI-H1651; first compound 0.03162 µM) was 0.615 and the relative viability (NCI-H1651; first compound 0.1 µM) was 0.593. For the same compound, the relative viability (NCI-H1651; first compound 0.3162 µM) was 0.642, the relative viability (NCI-H1651; first compound 1 µM) was 0.61 and the relative viability (NCI-H1755; first compound 0.01 µM) was 0.755. The relative viability (NCI-H1755; first compound 0.03162 µM) was 0.74, the relative viability (NCI-H1755; first compound 0.1 µM) was 0.711 and the relative viability (NCI-H1755; first compound 0.3162 µM) was 0.696. The relative viability (NCI-H1755; first compound 1 µM) was 0.719, the relative viability (NCI-H1793; first compound 0.01 µM) was 0.503 and the relative viability (NCI-H1793; first compound 0.03162 µM) was 0.502. It also gave a relative viability (NCI-H1793; first compound 0.1 µM) of 0.564, a relative viability (NCI-H1793; first compound 0.3162 µM) of 0.54 and a relative viability (NCI-H1793; first compound 1 µM) of 0.443. It also gave a relative viability (NCI-H1944; first compound 0.01 µM) of 0.488, a relative viability (NCI-H1944; first compound 0.03162 µM) of 0.448 and a relative viability (NCI-H1944; first compound 0.1 µM) of 0.443. For the same compound, the relative viability (NCI-H1944; first compound 0.3162 µM) was 0.408, the relative viability (NCI-H1944; first compound 1 µM) was 0.481 and the relative viability (NCI-H2087; first compound 0.01 µM) was 0.261. The relative viability (NCI-H2087; first compound 0.03162 µM) was 0.257, the relative viability (NCI-H2087; first compound 0.1 µM) was 0.336 and the relative viability (NCI-H2087; first compound 0.3162 µM) was 0.306. It also gave a relative viability (NCI-H2087; first compound 1 µM) of 0.297, a relative viability (NCI-H2170; first compound 0.01 µM) of 0.472 and a relative viability (NCI-H2170; first compound 0.03162 µM) of 0.447. The relative viability (NCI-H2170; first compound 0.1 µM) was 0.475, the relative viability (NCI-H2170; first compound 0.3162 µM) was 0.457 and the relative viability (NCI-H2170; first compound 1 µM) was 0.461. For the same compound, the relative viability (NCI-H2405; first compound 0.01 µM) was 0.82, the relative viability (NCI-H2405; first compound 0.03162 µM) was 0.715 and the relative viability (NCI-H2405; first compound 0.1 µM) was 0.812. The relative viability (NCI-H2405; first compound 0.3162 µM) was 0.76, the relative viability (NCI-H2405; first compound 1 µM) was 0.788 and the relative viability (NCI-H3122; first compound 0.01 µM) was 0.405. For the same compound, the relative viability (NCI-H3122; first compound 0.03162 µM) was 0.436, the relative viability (NCI-H3122; first compound 0.1 µM) was 0.564 and the relative viability (NCI-H3122; first compound 0.3162 µM) was 0.452. The relative viability (NCI-H3122; first compound 1 µM) was 0.388, the relative viability (NCI-H460; first compound 0.01 µM) was 0.509 and the relative viability (NCI-H460; first compound 0.03162 µM) was 0.48. It also gave a relative viability (NCI-H460; first compound 0.1 µM) of 0.499, a relative viability (NCI-H460; first compound 0.3162 µM) of 0.472 and a relative viability (NCI-H460; first compound 1 µM) of 0.51. For the same compound, the relative viability (PC-3 [JPC-3]; first compound 0.01 µM) was 0.809, the relative viability (PC-3 [JPC-3]; first compound 0.03162 µM) was 0.859 and the relative viability (PC-3 [JPC-3]; first compound 0.1 µM) was 0.874. It also gave a relative viability (PC-3 [JPC-3]; first compound 0.3162 µM) of 0.814, a relative viability (PC-3 [JPC-3]; first compound 1 µM) of 0.811 and a relative viability (RERF-LC-KJ; first compound 0.01 µM) of 0.746. For the same compound, the relative viability (RERF-LC-KJ; first compound 0.03162 µM) was 0.697, the relative viability (RERF-LC-KJ; first compound 0.1 µM) was 0.778 and the relative viability (RERF-LC-KJ; first compound 0.3162 µM) was 0.751. For the same compound, the relative viability (RERF-LC-KJ; first compound 1 µM) was 0.712, the relative viability (UMC-11; first compound 0.01 µM) was 0.587 and the relative viability (UMC-11; first compound 0.03162 µM) was 0.562. The relative viability (UMC-11; first compound 0.1 µM) was 0.492, the relative viability (UMC-11; first compound 0.3162 µM) was 0.556 and the relative viability (UMC-11; first compound 1 µM) was 0.687.
